“Also recorded” adds a separate entry of the source. Where two headings read alike, the source gives them in different places.
Tests used:
[1] = tested on: SHH signaling activity in SHH-organoids; test: Drug treatment of SHH-organoids, positional domains analysed at day 20; format: cell-based, human; settings: day 20 SHH-organoids
Description: Day 20 organoids were fixed in 4% PFA overnight at 4° C. and washed three times with PBS the next day. […] Sections were blocked for 30 minutes in 10% FBS, 1% BSA, 0.3% triton in PBS, and incubated as floating section in primary antibody overnight. The next day, sections were washed with PBS and incubated as floating section in secondary antibody for 3 hours at room temperature. Day 6 organoids were fixed in 4% PFA for 2 hours at 4° C. and washed three times with PBS. After fixation, tissue was cryoprotected in 30% sucrose/PBS and sectioned at […] and mounted directly onto slides prior to immunofluorescence assays.
Organoid topography was quantified by first dividing each image into a grid of […] squares (day 20 analysis) or […] squares (day 6 analysis) that form a Cartesian coordinate grid. Each square is a discrete region of interest (ROI) that is associated with an X and Y coordinate. The origin of the grid was calculated for each image as the “center of mass” of the iSHH-organizer cells: CMx=S mixi/M and CMy=S miyi/M, where m=grey value intensity of iSHH cells for individual ROIs, x or y=coordinate, and M=total intensity for all ROIs, and the sum includes all x or y coordinates in the image. Next, ROI's that were positive for expression of a given protein (e.g. PAX6) were defined by thresholding staining intensity and determining ROIs with positive immunoreactivity. The linear distance from the origin to each ROI (sqrt((ROIx-CM^x)^2+(ROIy-CMy)^2)) was calculated. The present study analyzed every sixth section for each regional marker per organoid (typically 2-5 sections/organoid, depending on organoid size), thus sampling the organoids in 150 μm intervals using uniform random sampling.

[2] = tested on: SHH signaling activity in SHH-organoids; test: Drug treatment of SHH-organoids, NKX2.2 induction at day 6; format: cell-based, human; settings: day 6 organoids
Description: Day 20 organoids were fixed in 4% PFA overnight at 4° C. and washed three times with PBS the next day. After fixation, tissue was cryoprotected in 30% sucrose/PBS and sectioned at […] on a cryostat (Leica 3050 S). Sections were blocked for 30 minutes in 10% FBS, 1% BSA, 0.3% triton in PBS, and incubated as floating section in primary antibody overnight. The next day, sections were washed with PBS and incubated as floating section in secondary antibody for 3 hours at room temperature. Day 6 organoids were fixed in 4% PFA for 2 hours at 4° C. and washed three times with PBS. After fixation, tissue was cryoprotected in 30% sucrose/PBS and sectioned at […] and mounted directly onto slides prior to immunofluorescence assays.
Organoid topography was quantified by first dividing each image into a grid of […] squares (day 20 analysis) or […] squares (day 6 analysis) that form a Cartesian coordinate grid. […] The origin of the grid was calculated for each image as the “center of mass” of the iSHH-organizer cells: CMx=S mixi/M and CMy=S miyi/M, where m=grey value intensity of iSHH cells for individual ROIs, x or y=coordinate, and M=total intensity for all ROIs, and the sum includes all x or y coordinates in the image. […] The linear distance from the origin to each ROI (sqrt((ROIx-CM^x)^2+(ROIy-CMy)^2)) was calculated. […]

[3] = tested on: SHH signaling in SHH organizer-containing organoids; test: Example 6.2: SHH organizer-containing organoids treated with cholesterol inhibitors (FIGS. 15-16); format: cell-based, human; settings: for SHH signaling (PAX6+ extent of organoid): FIG. 15; for long-range and short-range SHH signaling: FIG. 16
Description: To evaluate the effect of statins on fetal development, in certain embodiments SHH organizer-containing organoids are treated with statins.
FIG. 16 summarizes the effects of cholesterol inhibition on SHH organizer-containing organoids.

SHH-organoids [4] = tested on: SHH-organoids
SHH-organoids [5] = test: Drug treatment of SHH-organoids, organoid and organizer size at day 20
SW480 cells = settings: cited from earlier work
[6] = doxycycline 400 ng/ml, lovastatin 5 μM, AY9944 1.25 μM
[7] = lovastatin 5 μM, AY9944 1.25 μM, cyclopamine 1 μM

Clc1ccccc1CNCC1CCC(CNCc2ccccc2Cl)CC1 (centres unmarked) [AY9944]
SHH signaling activity (efficacy and range) ([1]; doxycycline 400 ng/ml, drug day 0-10, lovastatin 5 μM, AY9944 1.25 μM, cyclopamine 1 μM): reduced the efficacy and range of SHH signaling activity; also recorded: strong reduction the range of SHH-signaling activity
NKX2.2 induction [1, 6]: largely blocked; also recorded: fail to induce NKX2.2
NKX2.1 expression in or near the organizer [1, 7]: retained diencephalic NKX2.1 expression; also recorded: only retain NKX2.1 expression in the immediate vicinity of the organizer; also recorded: retain NKX2.1 and OTX2 expression within the organizer
NKX2.2 induction ([2]; all concentrations tested): strongly inhibited NKX2.2 induction at all concentrations tested; also recorded: strongly inhibits induction of NKX2.2
SHH signaling (PAX6+ extent of organoid) [3]: largely blocked SHH signaling
long-range and short-range SHH signaling [3]: block long-range SHH signaling, but not short range signaling
overall organoid size / growth (SHH-organoids [4]): impaired growth
size of the organizer (SHH-organoids [4]): did not reduce the size of the organizer itself

CC[C@H](C)C(=O)O[C@H]1C[C@@H](C)C=C2C=C[C@H](C)[C@H](CC[C@@H]3C[C@@H](O)CC(=O)O3)[C@H]21 [Lovastatin]
GSH2 expression domain ([1]; doxycycline 400 ng/ml, lovastatin 5 μM): concomitant increase in GSH2 expression; also recorded: increase in the relative area of the GSH2 expression domain
NKX2.2 induction [1, 6]: partial block in NKX2.2 induction; also recorded: moderate reduction in NKX2.2 induction
NKX2.1 expression in or near the organizer [1, 7]: retained diencephalic NKX2.1 expression; also recorded: retain NKX2.1 and OTX2 expression within the organizer
distance at which NKX2.2 is induced from the organizer ([2]; lovastatin 2, 5, 20 μM): reduced the distance at which NKX2.2 is induced from the organizer in a dose-dependent manner; also recorded: dose-dependent reduction
size of the organizer (SHH-organoids [5]): did not reduce the size of the organizer itself
overall organoid size / growth (SHH-organoids [5]; drug day 0-10): impaired growth

Oc1nc(-c2ccc(C(F)(F)F)cc2)nc2c1CSCC2 [XAV939]
degradation of β-catenin (SW480 cells): promotes the degradation of β-catenin
protein levels of the axin-GSK3β complex (SW480 cells): increases the protein levels of the axin-GSK3β complex

CC1=C2C[C@H]3[C@@H](CC=C4C[C@@H](O)CC[C@@]43C)[C@@H]2CC[C@]12O[C@@H]1C[C@H](C)CN[C@H]1[C@H]2C [cyclopamine]
PAX6 expression ([1]; doxycycline 400 ng/ml, cyclopamine 1 μM): nearly uniform for PAX6 expression; also recorded: largely express PAX6
NKX2.1 expression in or near the organizer [1, 7]: not
SHH signaling (PAX6+ extent of organoid) [3]: no SHH signaling
long-range and short-range SHH signaling [3]: block all SHH signaling

— patent publication US12404489B2, “Establishing topographic organization in three-dimensional tissue culture” (MEMORIAL SLOAN-KETTERING CANCER CENTER, priority 2017, dated 2025)
